Literature values as cited in publication PMC6054295 (Infection and Drug Resistance, 2018).
Where no end group is shown, it is not given here.

Experiments:
P. aeruginosa = conditions: at concentrations > 100 μM

Substance | cytotoxicity (MEWO cells) | antibacterial activity (P. aeruginosa) | cytotoxicity (3T3 cells) | concentration at which it behaves as a membrane-disrupting peptide
N-APPGARPPPGPPPPGPPPPGP-C [SP-B] | noncytotoxic | negligible antibacterial activity | noncytotoxic | –
indolicidin: a proline- and tryptophan-rich peptide (ILPWKWPWWPWRR; ends and bridges not checked; UniProt P33046 131-143, looked up) | – | – | – | > 2.6 µM
